Laboratory results published in article PMC3901077 (Journal of medicinal chemistry, 2010).
Where two headings read alike, the source gives them in different places.

How the values were obtained:
[1] = test system: A549 human lung carcinoma cells; experiment: MTT cytotoxicity assay in A549 cells; type: cell-based; conditions: IC50 versus CPT

## CC[C@@]1(OC(=O)CN)C(=O)OCc2c1cc1n(c2=O)Cc2cc3ccccc3nc2-1 [Prodrug 2a]
PB pH 6.6, 7.0 and 7.4
  CPT reconversion rate (rank among prodrugs): fastest
PB pH 6.6, 37 °C
  time for ester bond hydrolysis: ≤ 96 h
PB pH 7.0, 37 °C
  time for ester bond hydrolysis: ≤ 96 h
PB pH 7.4, 37 °C
  time for ester bond hydrolysis: ≤ 72 h
[1]
  fold less potent than parent drug (CPT): about 2 fold

## CC[C@@]1(OC(=O)[C@@H](C)N)C(=O)OCc2c1cc1n(c2=O)Cc2cc3ccccc3nc2-1 [Prodrug 2b]
PB pH 6.6, 37 °C
  time for ester bond hydrolysis: 96 h
PB pH 7.0, 37 °C
  time for ester bond hydrolysis: 96 h
PB pH 7.4, 37 °C
  time for ester bond hydrolysis: ≤ 72 h
[1]
  fold less potent than parent drug (CPT): ~20 fold

## CC[C@@H](N)C(=O)O[C@]1(CC)C(=O)OCc2c1cc1n(c2=O)Cc2cc3ccccc3nc2-1 [Prodrug 2c]
PB pH 6.6, 37 °C
  time for ester bond hydrolysis: 120 h
PB pH 7.0, 37 °C
  time for ester bond hydrolysis: ~ 120 h
PB pH 7.4, 37 °C
  time for ester bond hydrolysis: ≤ 96 h

## CCC[C@@H](N)C(=O)O[C@]1(CC)C(=O)OCc2c1cc1n(c2=O)Cc2cc3ccccc3nc2-1 [Prodrug 2d]
PB pH 6.6, 7.0 and 7.4
  stability (rank among prodrugs): most stable
PB pH 6.6, 37 °C
  time for ester bond hydrolysis: 144 h
PB pH 7.0, 37 °C
  time for ester bond hydrolysis: ≤ 120 h
PB pH 7.4, 37 °C
  time for ester bond hydrolysis: ≤ 120 h
